{"source": "patent US20260077140A1", "about": "“METERED DOSE INHALER FOR IPRATROPIUM BROMIDE SOLUTION” (Glenmark Pharmaceuticals Limited, priority 2024, published 2026)", "origin": "cited, not measured here", "conditions": "aerosol solution in HFA-134(a) and about 35% ethanol, stored at 50° C.", "note": "Like-named read-outs stand apart in the source and are kept apart here.", "data": [{"smiles": "CC(C)[N+]1(C)[C@@H]2CC[C@H]1CC(OC(=O)C(CO)c1ccccc1)C2.[Br-]", "note": "(some centres unmarked) [ipratropium bromide]", "values": [{"measurement": "decomposition of the ipratropium bromide", "value": "significant decomposition"}, {"measurement": "decomposition of the ipratropium bromide", "setting": "addition of 1% water", "value": "reduced the decomposition due to dehydration"}]}]}
